For this test, the system named is primary human OA articular chondrocytes (OA-HACs). Nature of the test: BMP7 peptide library screening, quantitative real-time PCR of OA chondrocyte phenotype genes. Conditions: for expression of SOX9, COL2A1, and NKX3-2 mRNA / expression of RUNX2, COL10A1, ALPL, MMP13, ADAMTS5, COX-2, and IL6 mRNA: 24 h, 1, 10, 100 or 1,000 nM peptide, normalized to 28S rRNA; for expression of SOX9, COL2A1, and NKX3-2 mRNA: relative to control (Figure 2A); for expression of RUNX2, COL10A1, ALPL, MMP13, ADAMTS5, COX-2, and IL6 mRNA: relative to control (Figures 2B, 2C); for concentration range of bioactivity / COL10A1 mRNA expression: 24 h; for concentration range of bioactivity: concentration series 1-1,000 nM; for COL10A1 mRNA expression: pool of 18 OA-HACs, 100 nM peptide, versus control (Figure 1B). The test is classed as cell-based. The source says:
To investigate whether BMP7 harbors potential peptide sequences that improve the OA chondrocyte phenotype, a peptide library was designed from the mature 139 amino acid-long human BMP7 sequence (Table S2). The peptide library was designed as 20-mer peptides with 2 amino acid intervals (18 amino acid overlap) between individual peptides and with all cysteine residues substituted by serine residues to avoid uncontrolled oxidation of cysteine groups. This yielded 61 individual peptides covering the complete mature human BMP7 sequence (Figure 1A). The peptide library was screened using a pool of primary human OA articular chondrocytes (OA-HACs) from 18 individual donors. Prior to pooling, individual OA-HAC isolates were tested for their responsiveness to BMP7 (Figure S1). The screening was conducted by exposing the OA-HAC pool for 24 h to a concentration series (1, 10, 100, or 1,000 nM) of each peptide from the library. […] This is defined as reduced expression of collagen type X alpha 1 chain (COL10A1), alkaline phosphatase (ALPL), Runt-related transcription factor 2 (RUNX2), ADAMTS5, MMP13, prostaglandin-endoperoxide synthase 2 or cyclooxygenase-2 (COX-2), and interleukin 6 (IL6) and increased expression of SRY-box transcription factor 9 (SOX9), COL2A1, and NKX3-2. […] Representative peptides inducing the above gene expression characteristics in OA-HACs were selected from both regions for further investigation. These were peptide p[63−82] and p[113−132] from the library, covering amino acids 63−82 and 113−132 of the mature BMP7 amino acid sequence. The complete quantitative real-time PCR data for peptides p[63−82] and p[113−132] […] For the two candidate peptides, we validated data using an independent cohort of three OA-HACs exposed to 100 nM of p[63−82] or p[113−132] or a combination of both peptides. […] Taken together, two regions in BMP7 were identified delivering peptide sequences that are able to improve the OA chondrocyte phenotype.
Figure 1 BMP7 peptide library screening on primary human OA articular chondrocytes (OA-HACs) (A) Schematic representation of the design of the human BMP7 peptide library. (B) COL10A1 mRNA expression in samples from the library screening on a pool of 18 OA-HACs individually exposed for 24 h to the peptides (100 nM) in the library. Data are shown as compared to the control condition (white bar) and full-length BMP7 (1 nM; gray bar). The two blue bars represent candidate peptides p[63−82] and p[113−132]. […] Error bars represent mean ± SEM, and statistical significance for peptide condition or BMP7 versus control condition as determined by unpaired two-tailed Student’s t test is represented as ∗p < 0.05, ∗∗p < 0.01, and ∗∗∗p < 0.001; NS, not significant.
Figure 2 Bioactivity of BMP7-derived peptides p[63−82] and p[113−132] on OA-HACs Complete peptide library screening quantitative real-time PCR dataset for peptides p[63−82] and p[113−132] is presented. (A) SOX9, COL2A1, and NKX3-2 mRNA expression in the 18 OA-HAC pool exposed to 1,000, 100, 10, or 1 nM of peptide p[63−82] and p[113−132] is shown and presented relative to control (black bars) and alongside full-length BMP7 (white bars). (B) Similar to (A) but for chondrocyte hypertrophy-associated genes RUNX2, COL10A1, and ALPL. (C) Similar to (A) but for cartilage extracellular matrix remodeling-associated genes MMP13 and ADAMTS5 and inflammation-related genes COX-2 and IL-6. (D) Glycosaminoglycan (GAG) content (normalized to total protein content) on an independent cohort of three individual OA-HAC donors treated with 100 nM peptides p[63−82] and p[113−132] for 24 h. (E) Alkaline phosphatase (ALP) activity (normalized to total protein content) in similar samples from (D). (F) Prostaglandin E2 (PGE2) levels in culture supernatant in similar samples from (D). […]
(Real-time PCR tracks product formation cycle by cycle.)

Turning to “H-SEASPAMYYLNATANFYESG-OH [scrambled p[63−82], scrambled version of peptide p[63−82], reference compound]”, the “sequence specificity: expression of COL2A1, RUNX2, COL10A1, and COX-2” value (pool of 18 OA-HAC donors, scrambled peptides 100 nM, 24 h (Figure 2G)) is given as “neither one of them was able to recapitulate the bioactivity”.
Take H-AAYYSEGESAFPLNSYMNAT-OH [p[63−82]]: the “COL10A1 mRNA expression” value is on record as “significantly downregulated”. Where the note is “pool of 18 OA-HAC donors”, the “expression of SOX9, COL2A1, and NKX3-2 mRNA” value is recorded as “induced”; the “expression of RUNX2, COL10A1, ALPL, MMP13, ADAMTS5, COX-2, and IL6 mRNA” value is given as “inhibited”; the “concentration range of bioactivity” value is “low nanomolar range”.
Regarding “BMP7: full-length recombinant bone morphogenetic protein 7 (R&D Systems), used at 1 nM”, the “chondrocyte COX-2, IL-6, and PGE2 levels” value (full-length BMP7 1 nM, OA-HACs) is “attenuation”.
As to H-SVLYFDDSSNVILKKYRNMV-OH [p[113−132]], the “COL10A1 mRNA expression” value is “significantly downregulated”. In addition, where the note is “pool of 18 OA-HAC donors”, the “expression of SOX9, COL2A1, and NKX3-2 mRNA” value is given as “induced”; the “expression of RUNX2, COL10A1, ALPL, MMP13, ADAMTS5, COX-2, and IL6 mRNA” value is on record as “inhibited”; the “concentration range of bioactivity” value is reported as “low nanomolar range”.

These data come from publication PMC8022858, “Discovery of bone morphogenetic protein 7-derived peptide sequences that attenuate the human osteoarthritic chondrocyte phenotype” (Molecular Therapy. Methods & Clinical Development, 2021).
